Target: T1, EPHA1 (Homo sapiens, UniProt P21709)
T1 construct: purchased Thermo Fisher Scientific (Life Technologies) SelectScreen
Assay: SelectScreen Z'LYTE
Format: biochemical
Method in brief: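 SelectScreen broad panel; activity (Z'LYTE, Adapta) plus binding formats. ATP: Km app for CSF1R Z'LYTE; 10 for CAMK1 Adapta. Readout = % per kinase.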

T1 sequence (P21709 26-976): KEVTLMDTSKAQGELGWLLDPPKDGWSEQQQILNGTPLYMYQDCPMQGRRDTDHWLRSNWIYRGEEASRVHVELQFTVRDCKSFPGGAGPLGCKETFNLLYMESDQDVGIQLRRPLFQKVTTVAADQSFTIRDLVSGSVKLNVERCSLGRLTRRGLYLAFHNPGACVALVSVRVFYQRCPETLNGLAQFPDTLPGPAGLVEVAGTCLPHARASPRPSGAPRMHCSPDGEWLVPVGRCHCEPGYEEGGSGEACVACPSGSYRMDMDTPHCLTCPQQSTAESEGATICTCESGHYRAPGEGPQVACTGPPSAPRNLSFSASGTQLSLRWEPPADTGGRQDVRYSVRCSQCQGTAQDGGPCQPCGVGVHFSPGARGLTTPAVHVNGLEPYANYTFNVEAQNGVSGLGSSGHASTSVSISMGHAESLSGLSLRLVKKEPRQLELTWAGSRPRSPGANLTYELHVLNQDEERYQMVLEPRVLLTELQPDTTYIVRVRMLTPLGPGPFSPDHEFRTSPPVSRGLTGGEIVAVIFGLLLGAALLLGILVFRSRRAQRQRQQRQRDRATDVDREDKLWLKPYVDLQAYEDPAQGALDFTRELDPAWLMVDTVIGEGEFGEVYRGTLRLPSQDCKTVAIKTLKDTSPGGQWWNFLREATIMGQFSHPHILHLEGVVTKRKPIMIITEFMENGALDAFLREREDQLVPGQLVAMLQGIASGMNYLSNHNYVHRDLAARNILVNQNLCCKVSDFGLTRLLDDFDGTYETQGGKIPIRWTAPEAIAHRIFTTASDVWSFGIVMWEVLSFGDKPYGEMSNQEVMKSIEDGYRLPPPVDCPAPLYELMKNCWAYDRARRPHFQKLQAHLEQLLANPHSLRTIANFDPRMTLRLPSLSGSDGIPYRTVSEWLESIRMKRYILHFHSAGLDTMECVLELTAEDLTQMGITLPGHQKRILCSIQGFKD

Compound: CN(C(=O)CN1CCOCC1)c1ccc2sc3c(-c4cccc5c(=O)cc(N6CC7CCC(C6)O7)oc45)cccc3c2c1 [NU5455]
- inhibition at 1 µM: 2.7%

Reference: article PMC6934184, “Selective DNA-PKcs inhibition extends the therapeutic index of localized radiotherapy and chemotherapy” (The Journal of Clinical Investigation, 2019)
